Experimental findings from patent US12466822B2, “Heterocyclic compounds as immunomodulators” (Incyte Corporation, priority 2016, dated 2025) are described below.

Some results are limits rather than exact numbers.

The target of the test is T1, PD-1/PD-L1 protein/protein interaction (recombinant human PD-L1 protein (19-238), recombinant human PD-1 protein (25-167)) (Homo sapiens, UniProt Q9NZQ7).
T1 construct: Recombinant human PD-L1 protein (19-238) with a His-tag at the C-terminus; purchased AcroBiosystems PD1-H5229 (PD-L1-His); PD1-H5257 (PD-1-Fc)
T1 sequence (Q9NZQ7 19-238): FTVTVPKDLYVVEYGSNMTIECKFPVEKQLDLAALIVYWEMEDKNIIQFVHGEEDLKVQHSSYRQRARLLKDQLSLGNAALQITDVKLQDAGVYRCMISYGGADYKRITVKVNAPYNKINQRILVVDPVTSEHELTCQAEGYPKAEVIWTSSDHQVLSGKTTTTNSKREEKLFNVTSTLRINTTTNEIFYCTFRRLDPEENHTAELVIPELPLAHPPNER
Put plainly: PD-1/PD-L1 Homogeneous Time-Resolved Fluorescence (HTRF) Binding Assay. Conditions: 25° C., PBS buffer (pH 7.4), 40 minutes preincubation with inhibitors. The method in brief: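 Fc-tagged human PD-1 (25-167) and His-tagged PD-L1 (19-238), listed as […] and 10 nM final, preincubated 40 min with inhibitors in PBS pH 7.4, 0.05% Tween-20, 0.1% BSA, 1% DMSO, 25 °C. Eu anti-IgG/APC anti-His added, 60 min, 665/620 nm HTRF ratio; IC50 fitted from percent control activity.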
In general terms: Time-resolved FRET reads energy transfer from a long-lived donor to a nearby acceptor.
Usually IC50 stands for the concentration that inhibits the measured activity by half. On to `Cc1c(Nc2nccc3cc(CN4CC(C(=O)O)C4)cnc23)cccc1-c1cccc(Nc2nccc3cc(CN4CC[C@@H](O)C4)cnc23)c1Cl` [Example 75, (R)-1-((8-((2′-chloro-3′-((3-((3-hydroxypyrrolidin-1-yl)methyl)-1,7-naphthyridin-8-yl)amino)-2-methyl-[1,1′-biphenyl]-3-yl)amino)-1,7-naphthyridin-3-yl)methyl)azetidine-3-carboxylic acid], for which the concentration for half-maximal inhibition (IC50) is ≤ 10 nM.

As for `C[C@@]1(O)CCN(Cc2cnc3c(Nc4cccc(-c5cccc(Nc6nccc7cc(CN8CC[C@@H](O)C8)cnc67)c5Cl)c4Cl)nccc3c2)C1` [Example 76, (R)-1-((8-((2,2′-dichloro-3′-((3-(((R)-3-hydroxypyrrolidin-1-yl)methyl)-1,7-naphthyridin-8-yl)amino)-[1,1′-biphenyl]-3-yl)amino)-1,7-naphthyridin-3-yl)methyl)-3-methylpyrrolidin-3-ol], the IC50 is ≤ 10 nM.

For `OCCNCc1cnc2c(Nc3cccc(-c4cccc(Nc5nccc6cc(CN7CC[C@@H](O)C7)cnc56)c4Cl)c3Cl)nccc2c1` [Example 77, (R)-1-((8-((2,2′-dichloro-3′-((3-(((2-hydroxyethyl)amino)methyl)-1,7-naphthyridin-8-yl)amino)-[1,1′-biphenyl]-3-yl)amino)-1,7-naphthyridin-3-yl)methyl)pyrrolidin-3-ol], the 50% inhibitory concentration (IC50) was ≤ 10 nM.

On to `O=C(O)[C@@H]1CCN(Cc2cnc3c(Nc4cccc(-c5cccc(Nc6nccc7cc(CN8CC[C@@H](O)C8)cnc67)c5Cl)c4Cl)nccc3c2)C1` [Example 78, (R)-1-((8-((2,2′-dichloro-3′-((3-(((R)-3-hydroxypyrrolidin-1-yl)methyl)-1,7-naphthyridin-8-yl)amino)-[1,1′-biphenyl]-3-yl)amino)-1,7-naphthyridin-3-yl)methyl)pyrrolidine-3-carboxylic acid], for which the IC50 was ≤ 10 nM.

Consider `Cc1c(Nc2nccc3cc(CN4CC[C@@H](O)C4)cnc23)cccc1-c1cccc(Nc2nccc3cc(CN4CC[C@@H](C(=O)O)C4)cnc23)c1Cl` [Example 79, (R)-1-((8-((2-chloro-3′-((3-(((R)-3-hydroxypyrrolidin-1-yl)methyl)-1,7-naphthyridin-8-yl)amino)-2′-methyl-[1,1′-biphenyl]-3-yl)amino)-1,7-naphthyridin-3-yl)methyl)pyrrolidine-3-carboxylic acid], for which the IC50 was ≤ 10 nM.

On to `Cc1c(Nc2nccc3cc(CN4CC[C@@H](O)C4)cnc23)cccc1-c1cccc(Nc2nccc3cc(CN4CC(C(=O)O)C4)cnc23)c1Cl` [Example 80, (R)-1-((8-((2-chloro-3′-((3-((3-hydroxypyrrolidin-1-yl)methyl)-1,7-naphthyridin-8-yl)amino)-2′-methyl-[1,1′-biphenyl]-3-yl)amino)-1,7-naphthyridin-3-yl)methyl)azetidine-3-carboxylic acid], for which the IC50 is ≤ 10 nM.

Regarding `Cc1c(Nc2nccc3cc(CN4CC[C@@H](O)C4)cnc23)cccc1-c1cccc(Nc2nccc3cc(CNCCC(=O)O)cnc23)c1Cl` [Example 81, (R)-3-(((8-((2-chloro-3′-((3-((3-hydroxypyrrolidin-1-yl)methyl)-1,7-naphthyridin-8-yl)amino)-2′-methyl-[1,1′-biphenyl]-3-yl)amino)-1,7-naphthyridin-3-yl)methyl)amino)propanoic acid], the IC50 was ≤ 10 nM.

On to `O=C(O)[C@@H]1CCN(Cc2cnc3c(Nc4cccc(-c5cccc(Nc6nccc7cc(CN8CC[C@H](O)C8)cnc67)c5Cl)c4Cl)nccc3c2)C1` [Example 82, (R)-1-((8-((2,2′-dichloro-3′-((3-(((S)-3-hydroxypyrrolidin-1-yl)methyl)-1,7-naphthyridin-8-yl)amino)-[1,1′-biphenyl]-3-yl)amino)-1,7-naphthyridin-3-yl)methyl)pyrrolidine-3-carboxylic acid], for which the IC50 is ≤ 10 nM.

As for `O=C(O)[C@H]1CCN(Cc2cnc3c(Nc4cccc(-c5cccc(Nc6nccc7cc(CN8CC[C@H](O)C8)cnc67)c5Cl)c4Cl)nccc3c2)C1` [Example 83, (S)-1-((8-((2,2′-dichloro-3′-((3-(((S)-3-hydroxypyrrolidin-1-yl)methyl)-1,7-naphthyridin-8-yl)amino)-[1,1′-biphenyl]-3-yl)amino)-1,7-naphthyridin-3-yl)methyl)pyrrolidine-3-carboxylic acid], the IC50 was ≤ 10 nM.

For `Cc1c(Nc2nccc3cc(CN4CC[C@@H](C(=O)O)C4)cnc23)cccc1-c1cccc(-c2nc3c(o2)CN(C(=O)CN(C)C)C3)c1C` [Example 84, (R)-1-((8-((3′-(5-(dimethylglycyl)-5,6-dihydro-4H-pyrrolo[3,4-d]oxazol-2-yl)-2,2′-dimethyl-[1,1′-biphenyl]-3-yl)amino)-1,7-naphthyridin-3-yl)methyl)pyrrolidine-3-carboxylic acid], the IC50 is ≤ 10 nM.

Take `Cc1c(Nc2nccc3cc(CN4CC[C@@H](C(=O)O)C4)cnc23)cccc1-c1cccc(-c2nc3c(s2)CN(C(=O)CN(C)C)C3)c1C` [Example 85, (R)-1-((8-((3′-(5-(dimethylglycyl)-5,6-dihydro-4H-pyrrolo[3,4-d]thiazol-2-yl)-2,2′-dimethyl-[1,1′-biphenyl]-3-yl)amino)-1,7-naphthyridin-3-yl)methyl)pyrrolidine-3-carboxylic acid]: the IC50 is ≤ 10 nM.

For `Cc1c(Nc2nccc3cc(CN4CC[C@@H](O)C4)cnc23)cccc1-c1cccc(-c2nc3c(s2)CN(C(=O)CN2CC[C@@H](O)C2)C3)c1C` [Example 86, 2-((R)-3-hydroxypyrrolidin-1-yl)-1-(2-(3′-((3-(((R)-3-hydroxypyrrolidin-1-yl)methyl)-1,7-naphthyridin-8-yl)amino)-2,2′-dimethyl-[1,1′-biphenyl]-3-yl)-4,6-dihydro-5H-pyrrolo[3,4-d]thiazol-5-yl)ethan-1-one], the IC50 is ≤ 10 nM.

Take `Cc1c(Nc2nccc3cc(CN4CC[C@@](C)(C(=O)O)C4)cnc23)cccc1-c1cccc(-c2nc3c(s2)CN(C(=O)CN(C)C)C3)c1C` [Example 87, (R)-1-((8-((3′-(5-(dimethylglycyl)-5,6-dihydro-4H-pyrrolo[3,4-d]thiazol-2-yl)-2,2′-dimethyl-[1,1′-biphenyl]-3-yl)amino)-1,7-naphthyridin-3-yl)methyl)-3-methylpyrrolidine-3-carboxylic acid]: the IC50 was ≤ 10 nM.

`Cc1c(Nc2nccc3cc(CN4CC(C(=O)O)C4)cnc23)cccc1-c1cccc(-c2nc3c(s2)CN(C(=O)CN(C)C)C3)c1C` [Example 88, 1-((8-((3′-(5-(dimethylglycyl)-5,6-dihydro-4H-pyrrolo[3,4-d]thiazol-2-yl)-2,2′-dimethyl-[1,1′-biphenyl]-3-yl)amino)-1,7-naphthyridin-3-yl)methyl)azetidine-3-carboxylic acid]: the IC50 was ≤ 10 nM.

For the molecule `Cc1c(-c2nc3c(s2)CN(C(=O)CN(C)C)C3)cccc1-c1cccc(Nc2nccc3cc(CN4CC[C@@H](C(=O)O)C4)cnc23)c1Cl` [Example 89, (R)-1-((8-((2-chloro-3′-(5-(dimethylglycyl)-5,6-dihydro-4H-pyrrolo[3,4-d]thiazol-2-yl)-2′-methyl-[1,1′-biphenyl]-3-yl)amino)-1,7-naphthyridin-3-yl)methyl)pyrrolidine-3-carboxylic acid], the IC50 was ≤ 10 nM.

Regarding `CCN(C)CC(=O)N1Cc2nc(-c3cccc(-c4cccc(Nc5nccc6cc(CN7CC[C@@H](C(=O)O)C7)cnc56)c4Cl)c3C)sc2C1` [Example 90, (R)-1-((8-((2-chloro-3′-(5-(N-ethyl-N-methylglycyl)-5,6-dihydro-4H-pyrrolo[3,4-d]thiazol-2-yl)-2′-methyl-[1,1′-biphenyl]-3-yl)amino)-1,7-naphthyridin-3-yl)methyl)pyrrolidine-3-carboxylic acid], the IC50 was ≤ 10 nM.

With `Cc1c(-c2nc3c(s2)CN(C(=O)CN(C)C)C3)cccc1-c1cccc(Nc2nccc3cc(CN4CC[C@H](CC(=O)O)C4)cnc23)c1Cl` [Example 91, (R)-2-(1-((8-((2-chloro-3′-(5-(dimethylglycyl)-5,6-dihydro-4H-pyrrolo[3,4-d]thiazol-2-yl)-2′-methyl-[1,1′-biphenyl]-3-yl)amino)-1,7-naphthyridin-3-yl)methyl)pyrrolidin-3-yl)acetic acid], the half-inhibitory concentration (IC50) was ≤ 10 nM.

For the molecule `Cc1c(-c2nc3c(s2)CN(C(=O)CN(C)C)C3)cccc1-c1cccc(Nc2nccc3cc(CN4CC5CC4CC5C(=O)O)cnc23)c1Cl` (centres unmarked) [Example 92, 2-((8-((2-chloro-3′-(5-(dimethylglycyl)-5,6-dihydro-4H-pyrrolo[3,4-d]thiazol-2-yl)-2′-methyl-[1,1′-biphenyl]-3-yl)amino)-1,7-naphthyridin-3-yl)methyl)-2-azabicyclo[2.2.1]heptane-5-carboxylic acid], the IC50 is ≤ 10 nM.

In the case of `CCN(C)CC(=O)N1Cc2nc(-c3cccc(-c4cccc(Nc5nccc6cc(CN7CC[C@H](CC(=O)O)C7)cnc56)c4Cl)c3C)sc2C1` [Example 93, (R)-2-(1-((8-(2-chloro-3′-(5-(2-(ethyl(methyl)amino)acetyl)-5,6-dihydro-4H-pyrrolo[3,4-d]thiazol-2-yl)-2′-methylbiphenyl-3-ylamino)-1,7-naphthyridin-3-yl)methyl)pyrrolidin-3-yl)acetic acid], the IC50 was 10 to 100 nM.

On to `CCN(C)CC(=O)N1Cc2nc(-c3cccc(-c4cccc(Nc5nccc6cc(CN7CC8CC7CC8C(=O)O)cnc56)c4Cl)c3C)sc2C1` (centres unmarked) [Example 94, 2-((8-(2-chloro-3′-(5-(2-(ethyl(methyl)amino)acetyl)-5,6-dihydro-4H-pyrrolo[3,4-d]thiazol-2-yl)-2′-methylbiphenyl-3-ylamino)-1,7-naphthyridin-3-yl)methyl)-2-azabicyclo[2.2.1]heptane-5-carboxylic acid], for which the half-maximal inhibitory concentration (IC50) was ≤ 10 nM.
